# Experimental data taken from US20100324282A1, “METHOD FOR SEPARATING HETEROPOLYACID” (TOYOTA JIDOSHA KABUSHIKI KAISHA, priority 2009, published 2010).
# Experiments:
# Format in all cases: physicochemical
# [1] = Heating reaction test with phosphotungstic acid triacontahydrate: distribution of glucose; conditions: phosphotungstic acid triacontahydrate 30 g + glucose 5 g, heated
# Experimental: (§1) Phosphotungstic acid triacontahydrate (30 g) was mixed with glucose (5 g), the resultant was heated, and various types of the selected organic solvents were added in amounts 3 times greater than the minimal amount of the solvent necessary to dissolve phosphotungstic acid (by volume). The resultant was stirred and allowed to stand, followed by phase separation. The samples were dried using a centrifuge, the phosphotungstic acid content in the dried specimens was analyzed by the ICP mass spectrometer, and glucose content was assayed via liquid chromatography.
# [2] = Distribution ratio of phosphotungstic acid to organic solvent and water (saturated aqueous solution of phosphotungstic acid); conditions: ICP
# Experimental: (§2) The resultant was stirred and allowed to stand, followed by phase separation. Samples were obtained from each phase in an amount of 1 ml and the samples were dried using a centrifuge. The dried specimens were analyzed by the ICP mass spectrometer. Water was dissolved in each phase in order to identify an aqueous phase.
# [3] = Assay of solubility of phosphotungstic acid in organic solvent; conditions: in the listed organic solvent, room temperature
# Experimental: Phosphotungstic acid was added to an organic solvent at room temperature. Phosphotungstic acid was continuously added until it was not able to dissolve therein, and solubility was determined based on the entire amount of phosphotungstic acid added.
# [4] = Heating reaction test with saturated aqueous solution of phosphotungstic acid: distribution of phosphotungstic acid; conditions: saturated aqueous solution of phosphotungstic acid triacontahydrate 30 g + glucose 5 g, heated
# Experimental: (§3) A saturated aqueous solution containing 30 g of phosphotungstic acid triacontahydrate was mixed with 5 g of glucose, the mixture was heated, and various types of the selected organic solvents were then added thereto in amounts 3 times greater than the minimal amount of the solvent necessary to dissolve phosphotungstic acid (by volume). The resultant was stirred and allowed to stand, followed by phase separation. Samples were dried using a centrifuge, the phosphotungstic acid content in the dried specimens was analyzed by the ICP mass spectrometer, and glucose content was assayed via liquid chromatography.
# [5] = Heating reaction test with saturated aqueous solution of phosphotungstic acid: distribution of glucose; conditions: saturated aqueous solution of phosphotungstic acid triacontahydrate 30 g + glucose 5 g, heated
# Experimental: as §3
# [6] = Distribution ratio of phosphotungstic acid to organic solvent and water (powdery phosphotungstic acid); conditions: ICP
# Experimental: as §2, with “inductively coupled plasma (ICP)” for “ICP”
# [7] = Assay of solubility of glucose in organic solvent; conditions: in the listed organic solvent, room temperature
# Experimental: Glucose was added to an organic solvent at room temperature. Glucose was continuously added until it was not able to dissolve therein, and solubility was determined based on the entire amount of glucose added.
# [8] = Heating reaction test with phosphotungstic acid triacontahydrate: distribution of phosphotungstic acid; conditions: phosphotungstic acid triacontahydrate 30 g + glucose 5 g, heated
# Experimental: as §1
# [9] = Assay of distribution ratio of glucose (saturated aqueous solution of phosphotungstic acid)
# Experimental: n-Butyl ethyl ether (26.67 ml) was added to a saturated aqueous solution containing 30 g of phosphotungstic acid. The resultant was stirred and allowed to stand, followed by phase separation. Glucose was continuously added until glucose was not able to dissolve in each phase. Solubility of glucose in n-butyl ethyl ether was determined based on the amount of glucose dissolved.
SMILES,Distribution ratio of glucose (%) ([1]; Second phase (aqueous phase)),Distribution ratio of phosphotungstic acid (based on tungsten) (%) ([2]; First phase (from top)),Distribution ratio of phosphotungstic acid (based on tungsten) (%) ([2]; Second phase (from top)),Distribution ratio of phosphotungstic acid (based on tungsten) (%) ([2]; Third phase (from top)),Solubility of phosphotungstic acid (wt %) [3] [wt %],Distribution ratio of phosphotungstic acid (based on tungsten) (%) ([4]; First phase),Distribution ratio of phosphotungstic acid (based on tungsten) (%) ([4]; Second phase (aqueous phase)),Distribution ratio of glucose (%) ([5]; First phase),Distribution ratio of glucose (%) ([5]; Second phase (aqueous phase)),Distribution ratio of phosphotungstic acid (based on tungsten) (%) ([6]; First phase (from top)),Distribution ratio of phosphotungstic acid (based on tungsten) (%) ([6]; Second phase (from top)),Solubility of glucose (wt %) [7] [wt %],Distribution ratio of phosphotungstic acid (based on tungsten) (%) ([8]; First phase),Distribution ratio of phosphotungstic acid (based on tungsten) (%) ([8]; Second phase (aqueous phase)),Distribution ratio of glucose (%) ([1]; Third phase),Distribution ratio of phosphotungstic acid (based on tungsten) (%) ([4]; Third phase),Distribution ratio of glucose (%) ([5]; Third phase),Distribution ratio of phosphotungstic acid (based on tungsten) (%) ([6]; Third phase (from top)),Distribution ratio of phosphotungstic acid (based on tungsten) (%) ([8]; Third phase),further results
CCCCCCC(C)O (stereo not shown) [2-Octanol],100,1.0,97.7,1.3,200,98.1,1.9,0.8,99.2,97.9,2.1,<0.043,98.3,1.7,–,–,–,–,–,–
CCCCOCC [n-Butyl ethyl ether],100,0.1,5.1,94.8,300,0.1,8.9,–,100,0.1,2.9,<0.03,0.1,10.2,0,91.0,0,97.0,89.7,"Distribution ratio of phosphotungstic acid (based on tungsten) (%) ([6]; Third phase (from top), listed as n-butyl ethyl ether): 97%; Distribution ratio of glucose (%) ([9]; First phase): 0.1%; Distribution ratio of glucose (%) ([9]; Second phase (aqueous)): 97.7%; Distribution ratio of glucose (%) ([9]; Third phase): 2.2%"
CCCCCCCCO [1-Octanol],100,1.3,97.3,1.4,200,96.8,3.2,0,100,97.7,2.3,<0.045,96.9,3.1,–,–,–,–,–,–
CCOCC [Diethyl ether],100,0.01,1.5,98.5,>229.3,0.04,1.6,0,100,0.01,99.4,<0.025,0.03,1.7,0,98.3,0,0.6,98.3,Distribution ratio of glucose (%) ([1]; First phase): 0%
